Positions count from the first letter of the chain named. Several values for one entry are separate records, joined by “and”; a condition that tells them apart may be missing. Equal values may be shown once. Read-outs that look alike come from different tables or passages of the source.
Columns and labels:
OCT1 Phe244Ala variant = target: T1, OCT1 Phe244Ala variant (Homo sapiens, UniProt O15245, F244A); assay: Uptake screening (transport ratio over empty vector), HEK293 cells overexpressing OCT1 Phe244Ala variant; type: cell-based; set-up: expressed in transfected cells;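 further: stably transfected HEK293 cells, intracellular substrate quantified by HPLC-tandem mass spectrometry in cell lysates, uptake in HBSS+ buffer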
T1 sequence (O15245 1-554 F244A): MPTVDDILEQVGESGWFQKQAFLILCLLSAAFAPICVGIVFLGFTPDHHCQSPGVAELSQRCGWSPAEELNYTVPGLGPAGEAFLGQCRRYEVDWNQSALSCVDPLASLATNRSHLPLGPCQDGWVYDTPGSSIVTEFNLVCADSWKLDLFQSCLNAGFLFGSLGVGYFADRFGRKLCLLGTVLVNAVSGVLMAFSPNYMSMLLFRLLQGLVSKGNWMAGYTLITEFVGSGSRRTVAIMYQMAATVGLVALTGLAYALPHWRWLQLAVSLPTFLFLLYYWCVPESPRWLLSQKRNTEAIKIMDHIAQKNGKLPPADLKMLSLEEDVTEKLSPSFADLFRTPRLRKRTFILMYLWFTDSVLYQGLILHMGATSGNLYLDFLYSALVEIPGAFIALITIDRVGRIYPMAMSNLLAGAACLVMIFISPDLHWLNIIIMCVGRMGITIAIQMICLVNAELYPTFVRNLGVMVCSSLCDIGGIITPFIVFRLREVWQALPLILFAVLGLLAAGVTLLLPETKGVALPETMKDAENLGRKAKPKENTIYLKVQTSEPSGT

OCT1 WT = target: T2, OCT1 WT (Homo sapiens, UniProt O15245); assay: Uptake screening (transport ratio over empty vector), HEK293 cells overexpressing OCT1 WT; type: cell-based; set-up: expressed in transfected cells;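 further: intracellular substrate levels quantified by HPLC–tandem mass spectrometry after uptake in HBSS+ buffer at 37 °C, stable Flp-In HEK293 lines, fold change versus empty vector–transfected cells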
T2 sequence (O15245 1-554): T1 sequence (O15245 1-554 F244A) with A244F
Description: All experiments were carried out using transporter-overexpressing HEK293 cells. […] Cells were cultivated in Dulbecco’s Modified Eagle’s medium supplemented with 10% fetal calf serum, 100 U/ml penicillin, and 100 μg/ml streptomycin. Cells were passaged twice a week and kept in culture for no longer than 30 passages.
For uptake studies, 300,000 HEK293 cells were plated in each well of 24-well plates precoated with poly-D-lysine 48 prior to the experiment. On the day of the experiment, cells were washed once with prewarmed to 37 °C HBSS+ (Hank’s balanced salt solution supplemented with 10 mM Hepes, both Sigma-Aldrich). […] Uptake was stopped by adding ice-cold HBSS+ and cells were washed twice with ice-cold buffer before cell lysis was done using 80% acetonitrile containing an appropriate internal standard for eventual mass spectrometry. Relative quantification was done by comparison of transporter-overexpressing cells to empty vector–transfected controls. For uptake kinetic experiments, cells were incubated with increasing concentrations of substrate dissolved in HBSS+. Absolute quantification was done later by comparison to a standard curve in lysis buffer with known concentration.
Intracellular drug concentrations were detected and quantified by HPLC coupled to mass spectrometry. […] Substance-specific conditions were used to adjust the retention times of the analytes.
Transport ratios were determined as relative fold-increase of the uptake in transporter-overexpressing cells over empty vector–transfected control cells. For transport kinetic experiments, absolute substrate quantification was done by signal comparison to a standard curve with known concentrations. Net uptake was then determined by subtracting the uptake into empty vector–transfected cells from transporter-overexpressing cells. […] Vmax defines the maximum transport velocity, Km refers to the substrate concentration required to reach half vmax. The intrinsic clearance Clint is the ratio of vmax over Km.

[1] = Phe244Ala uptake relative to OCT1 WT
[2] = uptake ratio of OCT1 Phe244Ala-overexpressing HEK293 cells over empty vector
[3] = uptake ratio of OCT1 WT-overexpressing HEK293 cells over empty vector
[4] = Phe244Ala uptake relative to WT
[5] = uptake ratio over empty vector, HEK293 cells overexpressing OCT1 Phe244Ala
[6] = uptake ratio over empty vector, HEK293 cells overexpressing OCT1 WT

| Compound | relative_Phe244Ala_uptake_in% (OCT1 Phe244Ala variant; [1]) | relative_Phe244Ala_uptake_in% (OCT1 Phe244Ala variant; [4]) | Mean_transport_ratio_Phe244Ala (OCT1 Phe244Ala variant; [5]) | Mean_transport_ratio_WT (OCT1 WT; [6]) | also measured |
| --- | --- | --- | --- | --- | --- |
| CNC1(C)C2CCC(C2)C1(C)C (stereo not drawn) [Mecamylamine] | -72.241% |  |  |  | Mean_transport_ratio_Phe244Ala (OCT1 Phe244Ala variant; [2]): 0.581; Mean_transport_ratio_WT (OCT1 WT; [3]): 1.579 |
| CC[N+](CC)(CC)Cc1ccccc1 [Benzyltriethylammonium] |  | 82.289% | 46.399 | 56.17 |  |
| CC(C)(C)NCC(O)c1ccc(O)c(O)c1 (stereo not drawn) [Colterol] |  | 33.880% | 2.364 | 5.025 |  |
| Cc1nccn1CC1CCc2c(c3ccccc3n2C)C1=O (stereo not drawn) [Ondansetron] | 92.867% |  | 1.514 | 1.554 |  |
| CC[N+](CC)(CC(=O)Nc1c(C)cccc1C)Cc1ccccc1 [Denatonium] |  | 121.267% | 17.085 | 14.264 |  |
| CNCC(O)c1ccc(O)cc1 (stereo not drawn) [Synephrine] | 47.706% |  | 4.516 | 8.37 |  |
| CN(C)CCc1c[nH]c2ccc(Cn3cncn3)cc12 [Rizatriptan] | 26.058% |  | 2.714 | 7.577 |  |
| COCCn1c2c([n+](Cc3cnccn3)c1C)C(=O)c1ccccc1C2=O [YM155] | 88.784% |  | 16.385 | 18.329 |  |
| CC1(C)N=C(N)N=C(N)N1c1ccc(Cl)cc1 [Cycloguanil] |  | 95.814% | 16.588 | 17.269 |  |
| [H]/N=C(/N)N/C(=N/[H])NCCc1ccccc1 [Phenformin] | 112.534% |  | 32.603 | 29.083 |  |
| CCCC[N+]1(C)[C@@H]2C[C@@H](OC(=O)[C@H](CO)c3ccccc3)C[C@H]1[C@@H]1O[C@@H]12 (stereo partly drawn) [Butylscopolamine] |  | 125.561% | 30.852 | 24.775 |  |
| Nc1nc(=O)n([C@@H]2CS[C@H](CO)O2)cc1F [Emtricitabine] |  | 51.794% | 2.01 | 2.95 |  |
| CNCC(O)c1ccc(O)c(OC)c1 (stereo not drawn) [Metanephrine] | 38.392% |  |  |  | Mean_transport_ratio_Phe244Ala (OCT1 Phe244Ala variant; [2]): 3.351; Mean_transport_ratio_WT (OCT1 WT; [3]): 7.123 |
| CNC[C@H](O)c1cccc(O)c1 [(R)-Phenylephrine] | 36.831% |  | 3.864 | 8.777 |  |
| CCC(NC(C)C)C(O)c1ccc(O)c(O)c1 (stereo not drawn) [Isoetharine] | 103.988% |  |  |  | Mean_transport_ratio_Phe244Ala (OCT1 Phe244Ala variant; [2]): 16.355; Mean_transport_ratio_WT (OCT1 WT; [3]): 15.766 |
| CC(=O)Nc1ccc(OCC(O)CNC(C)C)cc1 (stereo not drawn) [Practolol] | 83.607% |  | 1.913 | 2.092 |  |
| CC(C)NCC(O)c1ccc(O)c(O)c1 (stereo not drawn) [Isoproterenol] | 28.983% |  |  |  | Mean_transport_ratio_Phe244Ala (OCT1 Phe244Ala variant; [2]): 2.519; Mean_transport_ratio_WT (OCT1 WT; [3]): 6.241 |
| [H]/N=C(\N/C(=N/[H])Nc1ccc(Cl)cc1)NC(C)C [Proguanil] | 103.560% |  | 10.221 | 9.904 |  |

| Compound | relative_Phe244Ala_uptake_in% (OCT1 Phe244Ala variant; [1]) | relative_Phe244Ala_uptake_in% (OCT1 Phe244Ala variant; [4]) | Mean_transport_ratio_Phe244Ala (OCT1 Phe244Ala variant; [5]) | Mean_transport_ratio_WT (OCT1 WT; [6]) | also measured |
| --- | --- | --- | --- | --- | --- |
| Oc1ccc(CC2NCCc3cc(O)c(O)cc32)cc1 (stereo not drawn) [Higenamine] | 44.661% |  |  |  | Mean_transport_ratio_Phe244Ala (OCT1 Phe244Ala variant; [2]): 13.029; Mean_transport_ratio_WT (OCT1 WT; [3]): 27.934 |
| C[N+]1(C)[C@@H]2CC(OC(=O)C(O)(c3cccs3)c3cccs3)C[C@H]1[C@@H]1O[C@@H]12 (stereo partly drawn) [Thiotropium] |  |  |  |  | Mean_transport_ratio_Phe244Ala (OCT1 Phe244Ala variant): 35.339; relative_Phe244Ala_uptake_in% (OCT1 Phe244Ala variant): 101.472%; Mean_transport_ratio_WT (OCT1 WT): 34.841 |
| CC[C@H](CO)NCCN[C@@H](CC)CO [(R,S)-Ethambutol] |  |  |  |  | Mean_transport_ratio_Phe244Ala (OCT1 Phe244Ala variant): 12.934; relative_Phe244Ala_uptake_in% (OCT1 Phe244Ala variant): 72.992%; Mean_transport_ratio_WT (OCT1 WT): 17.35 |
| CC(=O)OC(C)C[N+](C)(C)C (stereo not drawn) [Acetyl-beta-Methylcholin] |  | 14.392% | 7.521 | 46.311 |  |
| CN(C)CC(c1ccc(O)cc1)C1(O)CCCCC1 (stereo not drawn) [O-Desmethylvenlafaxine] |  | 159.771% | 3.092 | 2.309 |  |
| O=C(O[C@H]1C[C@H]2CC[C@@H](C1)[N+]21CCCC1)C(O)(c1ccccc1)c1ccccc1 [Trospium] | 106.940% |  | 29.384 | 27.542 |  |
| C[N+]1(C)CCCC(OC(=O)C(O)(c2ccccc2)c2ccccc2)C1 (stereo not drawn) [Mepenzolate] | 130.959% and 121.132% |  |  |  | Mean_transport_ratio_Phe244Ala (OCT1 Phe244Ala variant; [2]): 36.4 and 41.936; Mean_transport_ratio_WT (OCT1 WT; [3]): 28.031 and 34.795 |
| COc1ccc2cc3[n+](cc2c1OC)CCc1cc2c(cc1-3)OCO2 [Berberine] |  | 63.219% | 7.924 | 11.952 |  |
| NCCc1cccc(O)c1 [m-Tyramine] | 13.730% |  | 1.687 | 6.001 |  |
| CC[C@@H](CO)NCCN[C@@H](CC)CO [(R,R)-Ethambutol] |  |  |  |  | Mean_transport_ratio_Phe244Ala (OCT1 Phe244Ala variant): 16.298; relative_Phe244Ala_uptake_in% (OCT1 Phe244Ala variant): 60.253%; Mean_transport_ratio_WT (OCT1 WT): 26.39 |
| Cc1ncccc1C(N)=O [Methylnicotinamide] | -6.232% |  |  |  | Mean_transport_ratio_Phe244Ala (OCT1 Phe244Ala variant; [2]): 0.82; Mean_transport_ratio_WT (OCT1 WT; [3]): 3.894 |
| CCN1CCCC1CNC(=O)c1cc(S(=O)(=O)CC)c(N)cc1OC (stereo not drawn) [Amisulpride] |  | 97.893% | 8.279 | 8.435 |  |
| CC[N+](CC)(CC)CC(=O)Nc1c(C)cccc1C [N-Ethyllidocaine] |  | 129.074% | 53.323 | 41.537 |  |
| COc1ccc2c3c([nH]c2c1)C(C)=NCC3 [Harmaline] | 53.184% |  |  |  | Mean_transport_ratio_Phe244Ala (OCT1 Phe244Ala variant; [2]): 1.245; Mean_transport_ratio_WT (OCT1 WT; [3]): 1.46 |
| CC[C@@H](CO)NCCN[C@@H](CC)CO [(S,S)-Ethambutol] |  |  |  |  | Mean_transport_ratio_Phe244Ala (OCT1 Phe244Ala variant): 11.185; relative_Phe244Ala_uptake_in% (OCT1 Phe244Ala variant): 49.465%; Mean_transport_ratio_WT (OCT1 WT): 21.59 |
| NCc1ccc(O)cc1 [Hydroxybenzylamin] | 22.795% |  |  |  | Mean_transport_ratio_Phe244Ala (OCT1 Phe244Ala variant; [2]): 1.294; Mean_transport_ratio_WT (OCT1 WT; [3]): 2.288 |
| CNCc1ccc(CSCCNC(=C[N+](=O)[O-])NC)o1 [N-Desmethyl ranitidine] |  | 88.566% | 31.7 | 35.663 |  |
